Consider four compounds from publication PMC10601079 (ACS Omega, 2023).

What is called Km is the substrate concentration at which the rate is half of its maximum.

Molecules are shown by their SMILES.

This assay relates to ACS. Kind of assay: coupled spectrophotometric assay of AMP formation. Format: biochemical, Gordonia sp. NB4-1Y. As to conditions: 2.5 mM ATP, 1.5 mM CoA, 5 mM MgCl2, 1 mM DTT, 50 mM potassium phosphate pH 7.5, 25 °C.
Take `CCC(=O)O` [propionic acid]: the Km amounted to 1.7 ± 0.2 mM.
The same measure for `CC(=O)O` [acetate]: 78.3 ± 7.4 mM; for `O=C(O)CCCC(F)(F)F` [1:4 FTCA, 5,5,5-trifluoropentanoic acid]: 12.5 ± 0.7 mM; for `CCCCC(=O)O` [pentanoic acid]: 0.109 ± 0.011 mM.
